The values that follow come from patent US6190664A, “Depigmenting cosmetic skin-care composition and use thereof” (C 3 D, priority 1995, dated 2001).

The subject of the test is Tyrosinase. Kind of test: In vitro inhibition of tyrosinase (Dopachrome at 475 nm, substrate L-Dopa). It is filed as biochemical. As to conditions: for % of activity: controls = 100%. The method, then: The following test then allows to measure the inhibition of tyrosinase while dosing Dopachrome which is a coloured compound which may spectroscopically be dosed 475 nm.
In order to study the influence of some compounds on the enzymatic activity of tyrosinase, the enzymatic kinetics are achieved.
The reaction is performed at 25° C. in phosphate buffer pH7. Tyrosinase is brought together with its substrate L-Dopa. In the reaction medium it may be added the molecule to be studied.
One compares further the variation in optical density per minute of the test (in the presence of the molecule to be studied) to that of the controls (without molecule). The influence of the molecule on tyrosinase activity will be deduced. The results are then expressed as a percentage of activity knowing that the controls show 100% activity.
Appearance of Dopachrome at 475 nm is followed for 3 minutes.

Molecules are shown by their SMILES.

For the molecule `CCCCCCCCCCCCCCCC(=O)OC[C@H](O)[C@H]1OC(=O)C(O)=C1O` [Ascorbyl Palmitate], where the note is “tested concentration 1 mg/ml”, the “% of inhibition” value turned out to be 66% and the “% of activity” value is listed as 34%.

Consider `Oc1ccc(O)cc1` [Hydroquinone], for which the “% of inhibition” value by setting is: (tested concentration 4 mg/ml) 0%; (tested concentration 8 mg/ml) 0%; (tested concentration 16 mg/ml) 0%. The “% of activity” value runs as follows: (tested concentration 4 mg/ml) 241.9%; (tested concentration 8 mg/ml) 229.41%; (tested concentration 16 mg/ml) 112.53%.

As to `O=c1cc(CO)occ1O` [Kojic acid], the “% of inhibition” value by setting is: (tested concentration 1 mg/ml) 71%; (tested concentration 10 mg/ml) 80%. Moreover, the “% of activity” value reads like this: (tested concentration 1 mg/ml) 29%; (tested concentration 10 mg/ml) 20%.
